Measured values as given in patent US20260209200A1, “SALTS OF A DIHYDROOROTATE DEHYDROGENASE (DHOD) INHIBITOR” (priority 2022, published 2026).
In brackets after ≈: the same amount, converted by molar mass. Blank lines part the entries; values can stand above or below the compound they belong to.

Legend:
[1] = in vivo; settings: rat, in vivo, po
Method: (§1) Suspensions were stirred continuously prior to dose.
A total of 27 male SD rats were used (n=3). 27 male SD rats assigned to the study were divided into 9 groups and a single type of formulated PP-001 salt was orally administered to each group of rats at dose level of 4 mg/kg (2 mL/kg dose volume). The diet was provided ad libitum throughout the in-life portion of the study, except for the fasting prior to dosing through 4 hours post dose. Drinking water was available daily ad libitum to all animals.
(§2) Plasma samples were collected via the jugular vein cannulation into EDTA-K3 tubes at 0.25, 0.5, 1, 2, 4, 8, and 24 hours post-dose administration. For analytical batch of single oral administration, plasma concentrations of salts of PP-001 were determined using LC-MS/MS with a lower limit of quantitation of 1 ng/mL.
(§3) The pharmacokinetic parameters of PP-001 salts were determined by non-compartmental analysis using WinNonlin Version 8.0 (Pharsight, Mountain View, CA). The area under the curve from the time of dosing to the last measurable concentration, AUC0-t, was calculated by the linear trapezoidal rule. The area under the concentration-time curve extrapolated to infinity, AUCinf, was calculated using a regression of the natural logarithm of the concentration values versus sampling time of the terminal slope (Lambda Z, k). This value is also used to calculate half-life (T1/2) as follows:
(§4) The bioavailability was calculated as follows:
(§5) [formula] • wherein PO is an oral administration and IV is an intravenous injection.

[2] = in vivo; settings: dog
Method: as §1
A total of 6 male beagle dogs were used (n=3). 6 male dogs assigned to the study were divided into 2 periods with 6 dogs per period and two dosing cycles separated by a 7-day washout period. The diet was provided ad libitum throughout the in-life portion of the study, except for the fasting prior to dosing through 4 hours post dose. Drinking water was available daily ad libitum to all animals. Formulated PP-001 salts were administered to male beagle dogs by oral administration at 4 mg/kg with dosed volume at 2 mL/kg.
as §2, with “of 10” for “of 1”
as §3, §4, §5

[3] = Solubility of PP-001 free acid in supernatant of 10 mg/mL formulation in FaSSIF; type: physicochemical; settings: supernatant of 10 mg/mL formulation at 25° C. in FaSSIF after 120 min
[4] = Kinetic solubility of PP-001 salts in FaSSIF (HPLC); type: physicochemical; settings: 4 mL FaSSIF, 25° C., target 2 mg/mL
Method: Approximately 8 mg (calculated as freebase) of each salt was weighed out into each glass vial and then 4 ml of FaSSIF was added (target concentration was 2 mg/mL). The sample was kept stirring on a magnetic stirrer at a speed of I 00 RPM under 25° C. Then at the time points of initial, 0.5 hr, 1 hr, 2 hrs and 24 hrs, 0.5 mL of sample solution was transferred into 1.5 mL centrifugation tube and centrifuged at 12,000 RPM for 10 min. The supernatant was diluted by 50% ACN suitable and analyzed by HPLC.
An HPLC method of testing solubility was performed as follows in Table A: […]

[5] = Thermodynamic (equilibrium) solubility of PP-001 salts in FaSSIF; type: physicochemical; settings: 3 mL FaSSIF, 37° C.
Method: As the solid was completely dissolved, add more sample to keep it saturated. […] Then at the time point 2 hrs, 0.5 mL of sample solution was transferred into 1.5 mL centrifugation tube and centrifuged at 12,000 RPM for 10 min. The supernatant was diluted by 50% ACN suitable and analyzed by HPLC. The pH was tested after 24 hours.

Increase in oral BA vs free acid in rats ([1]; male, SD): 1 | bioavailability ([1]; male, SD, 4 mg/kg): 7.8% | Increase in oral BA vs free acid in dogs ([2]; male, beagle): 1 | bioavailability ([2]; male, beagle, po, 4 mg/kg): 23% | solubility at 120 min [3]: 1200 µg/mL (≈ 2500 µM)
Compound: O=C(Nc1c(F)c(F)c(-c2cccc(OC(F)(F)F)c2)c(F)c1F)c1ccsc1C(=O)O [PP-001 free acid, 3-(2,3,5,6-tetrafluoro-3′-trifluoromethoxy-biphenyl-4-ylcarbamoyl)-thiophene-2-carboxylic acid]

Appearance after stirring for 24 hours [4]: clear solution | Solubility at different time points, 0.5 h ([4]; 0.5 h): 1600 µg/mL | Solubility at different time points, 1 h ([4]; 1 h): 1730 µg/mL | Solubility at different time points, 2 h ([4]; 2 h): 1790 µg/mL | Solubility at different time points, 24 h ([4]; 24 h): 2010 µg/mL | Solubility at different time points, Initial ([4]; initial): 410 µg/mL | Final pH ([5]; pH tested after 24 hours): 6.49 | Appearance after stirring for 24 hours ([5]; saturated): Suspension | Thermodynamic solubility ([5]; saturated (target 10 mg/mL), time point 2 hrs, pH 6.4 to 6.5): 1850 µg/mL | Increase in oral BA vs free acid in rats [1]: 2.4 | AUC0-∞ ([1]; 4 mg/kg): 32873 ng·h/mL | AUCExtr ([1]; 4 mg/kg): 0.743% | AUCinf/D ([1]; 4 mg/kg): 8218 kg·ng·h/mL/mg | AUClast ([1]; 4 mg/kg): 32626 ng·h/mL | Cmax ([1]; 4 mg/kg): 6147 ng/mL | F, bioavailability (BA) in rats ([1]; 4 mg/kg): 18.8% | MRT0-∞ ([1]; 4 mg/kg): 4.76 h | Tmax ([1]; 4 mg/kg): 2.33 h | T1/2 ([1]; 4 mg/kg, pH 6.8): 3.34 h | Increase in oral BA vs free acid in dogs [2]: 2.6 | AUC0-∞ ([2]; po, 4 mg/kg): 116660 ng·h/mL | AUCExtr ([2]; po, 4 mg/kg): 2.16% | AUCinf/D ([2]; po, 4 mg/kg): 29165 kg·ng·h/mL/mg | AUClast ([2]; po, 4 mg/kg): 114152 ng·h/mL | Cmax ([2]; po, 4 mg/kg): 16867 ng/mL | F, bioavailability (BA) in dogs ([2]; po, 4 mg/kg): 59.6% | MRT0-∞ ([2]; po, 4 mg/kg): 5.28 h | T1/2 ([2]; po, 4 mg/kg): 4.24 h | Tmax ([2]; po, 4 mg/kg): 3.00 h
Compound: Sodium
